Results published in paper PMC9124866, “Structure-Activity Relationships of Dopamine Transporter Pharmacological Chaperones” (Frontiers in Cellular Neuroscience, 2022).
Where a name gives a salt, the structure may show the parent alone. Read-outs that look alike come from different tables or passages of the source.

Assays:
[1] = biological target: T1, YFP-HA-βlac-DAT (Homo sapiens, UniProt Q01959); test: β-lactamase (βlac) surface expression assay; assay type: cell-based; conditions: assumed effective EMax; for EMax (%), WT DAT surface expression: HEK cells expressing YFP-HA-βlac-DAT
T1 sequence (Q01959 1-171 limits assumed): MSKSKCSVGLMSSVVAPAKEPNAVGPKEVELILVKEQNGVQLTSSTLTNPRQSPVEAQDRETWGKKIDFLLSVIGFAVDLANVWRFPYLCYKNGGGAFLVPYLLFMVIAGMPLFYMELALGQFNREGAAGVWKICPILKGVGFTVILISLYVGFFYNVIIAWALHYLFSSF
T1 sequence (Q01959 237-620 limits assumed): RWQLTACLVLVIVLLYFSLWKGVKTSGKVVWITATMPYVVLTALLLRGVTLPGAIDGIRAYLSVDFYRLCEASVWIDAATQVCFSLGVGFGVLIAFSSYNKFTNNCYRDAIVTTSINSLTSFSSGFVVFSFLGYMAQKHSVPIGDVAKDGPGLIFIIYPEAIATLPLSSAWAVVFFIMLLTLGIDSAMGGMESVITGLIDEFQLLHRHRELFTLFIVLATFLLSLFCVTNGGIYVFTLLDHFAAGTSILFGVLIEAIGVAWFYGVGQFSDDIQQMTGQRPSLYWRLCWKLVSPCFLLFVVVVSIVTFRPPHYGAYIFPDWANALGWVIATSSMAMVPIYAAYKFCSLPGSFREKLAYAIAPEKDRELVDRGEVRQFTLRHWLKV
Method: The βlac surface expression assay was performed by following the method outlined in [Lam et al. (2013)] and [Beerepoot et al. (2015], [2016)]. The assay substrate nitrocefin (BD biosciences) was dissolved in dimethyl sulfoxide (DMSO) at a concentration of 10 mM and frozen at −80°C. Immediately before use, it was thawed and diluted to a final concentration of 100 μM in phosphate buffered saline (PBS). Cells (1 × 10^5/well) were seeded into a poly-D-lysine-coated 48-well plate and incubated for 24 h, prior to drug treatment. Drugs were added to individual wells at varying concentrations and incubated for 16 h. Subsequently, the media was aspirated, and the cells were washed twice with PBS. After removal of the final PBS wash, 200 μL of the nitrocefin solution was added to each well and the absorbance was immediately read. The EPOCH microplate spectrophotometer (BioTek) was used to measure absorbance (486 nm) for each well every minute for 30 min. The rate of reaction (slope of the curve) was used as the readout for the assay ([Beerepoot et al., 2015]). To determine suitable concentration ranges for each drug, they were dissolved in PBS or DMSO at the highest concentration possible. From here, the solutions were serial diluted 1/10 to yield 8 different concentrations. βLAC cells were then treated with the varying drug concentrations and cell viability was recorded using light microscopy. For additional measure, nitrocefin was added and the absorbance was read. For certain cases, Trypan Blue was used to quantitatively differentiate increased cell death from reduced cell division. […] Five or six doses were generally used in subsequent dosing experiments, starting at the highest non-toxic concentration.
Data analysis was performed using GraphPad Prism (GraphPad Software, La Jolla, CA). Linear regression analysis was performed on βLAC time points to determine the slope, thus the rate of reaction, for comparison. Furthermore, the slope was also used to determine the degree of dopamine uptake in the dopamine uptake assays. Non-linear regression, fitting to the log(agonist) vs. response and log(inhibitor) vs. response model curve, was used to determine dose-response relationships of surface expression and uptake assays, respectively. One-way ANOVA with Dunnett’s post hoc-test was used for the β-lactamase assay and one-way ANOVA with Bonferroni correction was used for western blot analysis.
Among these were RTI-1, RTI-2, RTI-5, RTI-6, RTI-11, RTI-20, and PAL-1007. […] The EMax values of all the analyzed drugs are included in Figure 1.
The pharmacological chaperone ability of the 15 ibogaine and tryptamine analogs, shown in Figure 3, were measured using the βlac surface expression assay. HEK cells expressing YFP-HA-βlac-DAT were incubated overnight with these compounds at concentrations varying by log and half-log dilutions, starting at 100 μM final concentration. […] Furthermore, it was important to determine whether the β-carboline analogs could also elicit a chaperone effect because they are not classified as DAT ligands ([Cao et al., 2007]). […] Removing the nitrogen from the ring reduced efficacy as observed with frovatriptan (103 ± 1.4%). […] Evodiamine (54 ± 1.7%) had no chaperone ability and caused a substantial reduction in the surface expression of DAT. Dose-response curves were generated to assess the pharmacological chaperone potencies of select compounds (Figure 4).

[2] = biological target: T2, WT DAT (YFP-HA-DAT) (Homo sapiens, UniProt Q01959); test: Western blot of mature WT DAT protein levels; assay type: cell-based; conditions: overnight 100 μM
T2 construct: expressed in transfected cells; host or cells: HEK293
T2 sequence (Q01959 whole entry): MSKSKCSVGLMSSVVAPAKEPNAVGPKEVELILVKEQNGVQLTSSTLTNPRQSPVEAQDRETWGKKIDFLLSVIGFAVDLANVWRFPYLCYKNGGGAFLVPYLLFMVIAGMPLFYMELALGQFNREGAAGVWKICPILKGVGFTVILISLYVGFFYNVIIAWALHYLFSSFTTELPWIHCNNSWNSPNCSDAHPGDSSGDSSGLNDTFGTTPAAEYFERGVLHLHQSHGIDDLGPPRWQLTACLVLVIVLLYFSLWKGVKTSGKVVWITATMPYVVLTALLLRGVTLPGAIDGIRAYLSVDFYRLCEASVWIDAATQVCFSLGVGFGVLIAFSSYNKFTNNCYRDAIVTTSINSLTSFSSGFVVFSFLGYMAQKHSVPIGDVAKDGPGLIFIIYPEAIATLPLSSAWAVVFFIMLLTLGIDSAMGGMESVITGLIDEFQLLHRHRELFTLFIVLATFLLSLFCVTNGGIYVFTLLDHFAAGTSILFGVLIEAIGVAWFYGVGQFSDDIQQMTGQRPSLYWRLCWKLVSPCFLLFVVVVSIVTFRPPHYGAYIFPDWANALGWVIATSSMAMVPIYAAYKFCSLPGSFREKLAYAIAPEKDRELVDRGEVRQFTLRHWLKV
Method: (§1) Cells (1 × 10^6 cells/well) were seeded onto a 6-well plate and incubated for 24 h. Cells were then treated with drugs and incubated for 16 h. After the incubation period, cells were lysed in RIPA buffer supplemented with protease inhibitors (working concentrations: pepstatin A, 5 μg/mL; leupeptin, 10 μg/mL; aprotinin, 1.5 μg/mL; benzamidine, 0.1 μg/mL; PMSF, 0.1 mM) on ice. At 4°C, cell lysates were gently shaken for 15 min followed by centrifugation at 15,000 rpm for 15 min to pellet debris. The Pierce BCA protein assay kit (Thermo Fisher Scientific, Canada) was used to determine the protein concentration of the supernatant. To reach a concentration of 40 μg of protein per 20 μL, samples were diluted in fresh RIPA buffer with 12.5% Laemmli sample buffer and 2.5% β-Mercaptoethanol prior to being heated to 55°C. The protein was then loaded on a 7.5 or 10% SDS-PAGE gel and run at 100 V for approximately an hour or until the dye front reached the bottom of the gel. Next, protein was transferred to a PVDF membrane at 22 V for 16 h or 100 V for 1 h. Blots were blocked with LI-COR blocking buffer for 1 h and incubated for 1 h at room temperature with rabbit anti-GFP (1:1,000 dilution; Life Technologies, cat#A11122). After washing three times with TBST, blots were incubated with goat anti-rabbit IRDye-680RD secondary antibody (1:15,000; LI-COR, cat#926-68071). As a loading control, blots were incubated with mouse anti-GAPDH (1:5,000, Sigma-Aldrich, Canada, cat#G8795) prior to secondary antibody goat anti-mouse IRDye-800GR (1:5,000 dilution, Rockland, Limerick, PA, cat#610-132-007). All antibodies were diluted in LI-COR blocking buffer. Additionally, REVERT total protein staining (LI-COR, Lincoln, NE) was used as a loading control. […] Mature, fully glycosylated DAT (mDAT = 110 kDa) and immature, ER-resident DAT (iDAT = 75 kDa) were visualized using the Odyssey Imaging System (LI-COR, Lincoln, NE) and Image Studio Version 5.2 software (Supplementary Figure 1).
(§2) We next assessed whether drugs that increase DAT surface expression also increase total protein levels of DAT. Cells expressing YFP-HA-DAT were incubated with select test compounds and DAT protein levels were examined by western blot. The effects of the compounds were assessed on WT DAT and K590A DAT. The K590A mutant is a well-characterized ER-retained, trafficking-deficient DAT mutant ([Miranda et al., 2004]) that can be rescued by pharmacological chaperones ([Beerepoot et al., 2016]).
(§3) FIGURE 5 Effect of noribogaine, tetrahydroharmine, PAL-594, bicifadine, and RTI-20 on WT and K590A DAT expression. […] (B) Quantification of WT mDAT protein levels. […] (D) Quantification of K590A mDAT protein levels. […]

[3] = biological target: T3, K590A DAT (Homo sapiens, UniProt Q01959, K590A); test: Western blot of mature K590A DAT protein levels; assay type: cell-based; conditions: overnight treatment
T3 construct: expressed in transfected cells; host or cells: HEK293
T3 sequence (Q01959 whole entry K590A): as the sequence (Q01959 whole entry) above, with K590A counted along it
Method: as §1, §2, §3

[4] = biological target: T1, YFP-HA-βlac-DAT; parameters: method as in Beerepoot et al., 2016; conditions: previous experiments; ref Beerepoot et al., 2016; cited from earlier work
[5] = biological target: T4, DAT (Homo sapiens, UniProt Q01959); conditions: read-out: Ki, DAT binding; ref Carroll et al., 2009; cited from earlier work
T4 construct: expressed in transfected cells
T4 sequence (Q01959 whole entry): as the sequence (Q01959 whole entry) above

[6] = biological target: T4, DAT; conditions: read-out: IC50, dopamine uptake inhibition; ref Carroll et al., 2009; cited from earlier work
[7] = biological target: T4, DAT; test: Dopamine uptake inhibition dose response of hit compounds (Figure 6); assay type: cell-based; conditions: doses 1 nM to 100 μM, normalized to vehicle
Method: Dopamine uptake inhibition was conducted using the Neurotransmitter Transporter Uptake Assay Kit (Molecular Devices, prod#R8173). Cells (1 × 10^5/well) were seeded into 96-well plates and incubated for 24 h. The cells were subjected to overnight drug treatment. The following day, wells were washed and incubated for 30 min with a mixture of 1X Hank’s Balanced Salt Solution (HBSS) and 0.1% Bovine Serum Albumin (BSA) Buffer. Dopamine uptake inhibitors were added during the incubation period. Following the incubation, the fluorescent dye was added, and the plate was immediately transferred to the bottom-read fluorescence microplate reader (Spectramax M3, Molecular Devices) for kinetic read-mode. The assay reads the amount of fluorescent activity which increases as fluorescent dye molecules are transported into the cells by the DAT. The read-out for this assay is the slope which equals the fluorescent measurements/time, ultimately denoting the uptake rate.
Data analysis was performed using GraphPad Prism (GraphPad Software, La Jolla, CA). Linear regression analysis was performed on βLAC time points to determine the slope, thus the rate of reaction, for comparison. Furthermore, the slope was also used to determine the degree of dopamine uptake in the dopamine uptake assays. […]

[8] = HEK293, read-out: EMax (%), WT DAT surface expression, HEK cells expressing YFP-HA-βlac-DAT, overnight (16 h) incubation, up to 100 μM, normalized to vehicle
[9] = HEK293, HEK cells expressing YFP-HA-βlac-DAT, overnight (16 h) incubation, up to 100 μM, normalized to vehicle, read-out: EMax (%), WT DAT surface expression
[10] = overnight (16 h) incubation, up to 100 μM, normalized to vehicle

**Q.** With `Cc1ccc(C23CNCC2C3)cc1` (stereo not drawn) [Bicifadine, bicifadine] as the compound, how does the Emax [1, 8] read?
**A.** 149 ± 15%

**Q.** And the “mature WT DAT (mDAT) protein levels” value [2]?
**A.** significantly increase

**Q.** What about the “K590A DAT (mDAT) protein levels” value [3] of the same compound?
**A.** statistically significant effect

**Q.** Which Emax [1, 8] does the source give for `CC(NC(C)(C)C)C(=O)c1cccc(Cl)c1` (stereo not drawn) [Bupropion, Bupropion hydrochloride, reference compound] here?
**A.** 144 ± 7.7%

**Q.** And the “previously reported increase of WT DAT surface expression (EMax)” value [4]?
**A.** 137%

**Q.** For `CC1NCCOC1c1cccc(Cl)c1` (stereo not drawn) [PAL-594], which Emax [1, 9] is on record?
**A.** 166 ± 8.7%

**Q.** What about the “mature WT DAT (mDAT) protein levels” value [2] of the same compound?
**A.** significantly increase

**Q.** And the “K590A DAT (mDAT) protein levels” value [3]?
**A.** statistically significant effect

**Q.** For `Cc1ccc(C(=O)C(C)NC(C)(C)C)cc1` (stereo not drawn) [RTI-5], which Emax [1, 9] is on record?
**A.** 140 ± 5.5%

**Q.** What about the Ki [5] of the same compound?
**A.** > 10 µM

**Q.** What about the IC50 [6] of the same compound?
**A.** 6.84 µM

**Q.** Which Emax [1, 9] does the source give for `CCCC(NC(C)(C)C)C(=O)c1cccc(Cl)c1` (stereo not drawn) [RTI-12] here?
**A.** 113 ± 6.3%

**Q.** What about the “maximal dopamine uptake inhibition” value [7] of the same compound?
**A.** 96%

**Q.** For `CC1NC(C)(C)COC1(O)c1cc(F)cc(F)c1` (stereo not drawn) [RTI-18], which Emax [1, 9] is on record?
**A.** 122%

**Q.** What does the source list for `Cc1ccc(C(=O)C(C)NC(C)(C)C)cc1Cl` (stereo not drawn) [RTI-20]?
**A.** Emax [1, 9]: 147 ± 8%; mature WT DAT (mDAT) protein levels [2]: significantly increase

**Q.** For `CC1NC(C)(C)COC1(O)c1cc(Cl)cc(Cl)c1` (stereo not drawn) [RTI-21], which Emax [1, 9] is on record?
**A.** 103 ± 3.7%

**Q.** For `COc1ccc2c3c([nH]c2c1)CCN(C)CC3` [Tabernanthalog, tabernanthalog], which Emax [1, 9] is on record?
**A.** 179 ± 9.1%

**Q.** With `COc1ccc2c3c([nH]c2c1)C(C)NCC3` (stereo not drawn) [Tetrahydroharmine, tetrahydroharmine] as the compound, how does the Emax [1, 8] read?
**A.** 137 ± 6.8%

**Q.** What about the “K590A DAT (mDAT) protein levels” value [3] of the same compound?
**A.** statistically significant effect

**Q.** For `NCCc1c[nH]c2ccccc12` [Tryptamine, tryptamine, reference compound], which Emax [1, 9] is on record?
**A.** 104 ± 1.6%

**Q.** Which “EMax (%), WT DAT surface expression” value [1, 10] does the source give for evodiamine [reference compound] here?
**A.** 54 ± 1.7%

**Q.** For ibogaine [reference compound], which “EMax (%), WT DAT surface expression” value [1, 10] is on record?
**A.** 222 ± 7.9%

**Q.** What about the “previously reported increase of WT DAT surface expression (EMax)” value [4] of the same compound?
**A.** 187%
